Conditions in all cases: [3H]-Arg-vasopressin, pH 7.4
The target of assay [1] is T1, vasopressin (V1) receptor (Rattus norvegicus, UniProt P30560).
T1 construct: Membrane specimens of rat liver (V1); from tissue; host or cells: rat liver membranes
Nature of the assay: V1 receptor binding assay, rat liver membrane (Experiment E-3). The method, then:
(§1) Membrane specimens of rat liver (V1) and rat kidney (V2) were used. 100,000 counts (3.69 nM) of [^3 H]-Arg-vasopressin, 25 μg (1 mg protein/ml) of each membrane specimen and a test medicament (10^-7 to 10^-5 M) were incubated in a total volume of 250 μl of an assay buffer (pH=7.4) containing 10 mM of MgCl2, 2 mM of EGTA and 20 mM of HEPES at 4° C. over day and night. Then, the incubation was washed with 5-ml portions of the buffer 5 times to thereby separate the membrane specimen binding to vasopressin followed by filtration with the use of a glass filter (GF/F). This glass filter was dried for about 3 hours and mixed with a cocktail for liquid scintillation (10 ml, ACSII). After allowing to stand overnight, the amount of the [^3 H]-Arg-vasopressin binding to the membrane was determined with a liquid scintillation counter and the inhibition ratio was calculated in accordance with the following formula: […]
(§2) B1; the amount of [^3 H]-Arg-vasopressin binding to the membrane in the presence of excessive vasopressin (10 μM)
(§3) C0; the amount of [^3 H]-Arg-vasopressin binding to the membrane in the absence of the test medicament and
(§4) C1; the amount of [^3 H]-Arg-vasopressin binding to the membrane in the presence of both the test medicament in a known amount and [^3 H]-Arg-vasopressin. […]

Assay [2] addresses T2, vasopressin (V2) receptor (Rattus norvegicus, UniProt Q00788).
T2 construct: rat kidney (V2); from tissue; host or cells: rat kidney membranes
In words: V2 receptor binding assay, rat kidney membrane (Experiment F-2). Here is the method:
as §1, with “in” for “in a total volume of”, “μl in total” for “μl”
as §2, §3, §4

Assay [3] concerns the target T1, vasopressin (V1) receptor. In words: V1 receptor binding assay, rat liver membrane (Experiment F-2). The method, then: as §1, with “in” for “in a total volume of”, “μl in total” for “μl”
as §2, §3, §4

Our source for the IC50 values is US5679671A, “Amino acid derivative” (Eisai Co., Ltd., priority 1993, dated 1997).

T1 sequence (P30560 whole entry): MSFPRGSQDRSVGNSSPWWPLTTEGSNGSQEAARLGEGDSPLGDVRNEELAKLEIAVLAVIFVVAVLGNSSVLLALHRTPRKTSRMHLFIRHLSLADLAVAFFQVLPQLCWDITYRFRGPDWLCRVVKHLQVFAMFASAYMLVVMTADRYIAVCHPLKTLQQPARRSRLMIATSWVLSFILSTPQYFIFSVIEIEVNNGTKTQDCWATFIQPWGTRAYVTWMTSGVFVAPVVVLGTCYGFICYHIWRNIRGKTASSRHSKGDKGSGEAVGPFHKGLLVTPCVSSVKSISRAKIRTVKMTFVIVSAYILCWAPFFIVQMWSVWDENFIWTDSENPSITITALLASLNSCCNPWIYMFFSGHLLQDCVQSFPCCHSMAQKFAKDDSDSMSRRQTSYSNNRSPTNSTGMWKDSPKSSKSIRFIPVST
T2 sequence (Q00788 whole entry): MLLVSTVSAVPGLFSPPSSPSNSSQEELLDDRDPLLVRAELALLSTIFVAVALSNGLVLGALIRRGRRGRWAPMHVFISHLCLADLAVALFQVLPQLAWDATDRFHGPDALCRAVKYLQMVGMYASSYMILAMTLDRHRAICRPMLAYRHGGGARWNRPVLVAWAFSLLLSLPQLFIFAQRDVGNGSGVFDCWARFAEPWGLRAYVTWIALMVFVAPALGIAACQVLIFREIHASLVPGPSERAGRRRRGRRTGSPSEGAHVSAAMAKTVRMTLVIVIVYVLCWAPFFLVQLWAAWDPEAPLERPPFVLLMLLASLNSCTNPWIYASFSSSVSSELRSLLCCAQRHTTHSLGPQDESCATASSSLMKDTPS

Turning to `CC(C)[C@H](S)C(=O)N[C@H]1Cc2ccc(-c3ccccc3)cc2[C@H]2CCC[C@@H](C(=O)O)N2C1=O` [Example E-10, [4S-[4α,7α(R*),12bβ]]-7-[(S)-2-Mercapto-3-methylbutyrylamino]-6-oxo-11-phenyl-1,2,3,4,6,7,8,12b-octahydropyrido[2,1-a][2]benzazepine-4-carboxylic acid], in assay [1], the IC50 is ≥ 10 µM. Turning to `O=C(N[C@H]1CCC[C@H]2SC[C@@H](C(=O)O)N2C1=O)[C@@H](S)Cc1ccccc1` [Example F-17, [3R-[3α,6α(S*),9aβ]]-6-[[(S)-1-Oxo-2-thio-3-phenylpropyl]amino]-octahydro-5-oxothiazol[3,2-a]-azepine-3-carboxylic acid], the IC50 is 1.39 µM in assay [2] and ≥ 10 µM in assay [3].
